Results from PMC12467740, “Synthesis, Characterization, and Screening Anticancer—Antibiofilm Activities of Theophylline Derivatives Containing CF3/OCF3 Moiety” (Biology, 2025).

Key:
[1] = test system: BEAS-2B cells; assay: MTT cell viability assay, BEAS-2B; type: cell-based; details: Homo sapiens, 48 h, mean ± SD (n = 3)
Procedure: (§1) The anticancer potential of substituted theophylline derivatives was investigated using human lung carcinoma (A549, CCL-185) and cervical cancer (HeLa, CCL-2) cell lines obtained from the American Type Culture Collection (ATCC). To evaluate the selectivity of the tested compounds, cytotoxicity was also assessed in a healthy human bronchial epithelial cell line (BEAS-2B, ATCC CRL-9609). Cells were maintained in DMEM (Euroclone S.p.A., Pero, Italy supplemented with 10% fetal bovine serum (Sigma-Aldrich, St. Louis, MO, USA) and 1% penicillin–streptomycin (1%, Capricorn Scientific GmbH, Ebsdorfergrund, Germany at 37 °C in a humidified atmosphere containing 5% CO2. The theophylline-derived compounds (1a–1e) were dissolved in DMSO to prepare 100 mM stock solutions, which were then diluted with DMEM to obtain final working concentrations ranging from 3.125 µM to 100 µM. To evaluate cell viability, the MTT colorimetric assay was employed. Upon reaching logarithmic growth, A549, HeLa and BEAS-2B cells were seeded at a density of 7000 cells per well in 96-well microplates and allowed to attach for 24 h. Following this, cells were treated with different concentrations of the compounds and incubated for 48 h. After treatment, 100 µL of fresh medium and 20 µL of MTT reagent (5 mg/mL, Bio Basic Inc., Markham, ON, Canada) were added to each well, and cells were incubated for an additional 3 h. The resulting formazan crystals were solubilized with DMSO. Cell viability was calculated as the percentage of absorbance relative to untreated controls, and IC50 values were determined by nonlinear regression analysis using GraphPad Prism software, version 8.0 (GraphPad Software, San Diego, CA, USA. All experiments were performed in at least three independent replicates, and results are reported as mean ± SD. The percentage of inhibition was calculated based on the reduction in metabolic activity of the cells following compound treatment, as assessed by the MTT assay. The absorbance was measured at 570 nm using a microplate reader. The inhibition (%) was calculated using the following formula:Inhibition %=[1 − (Asample − Ablank)/[…]] × 100 To assess the tumor selectivity of the tested theophylline derivatives, the selectivity index (SI) was calculated for each compound. SI is defined as the ratio of the IC50 value in healthy (non-tumorigenic) cells to the IC50 value in cancer cells. In this study, IC50 values were determined for BEAS-2B (non-tumorigenic human bronchial epithelial cells) as a healthy control and for A549 (lung adenocarcinoma) and HeLa (cervical carcinoma) as tumor models. The SI was calculated according to the following equation:SI = [IC50, healthy/IC50, cancer]

[2] = test system: A549 cells; assay: MTT cell viability assay, A549; type: cell-based, human; details: for IC50: MTT, 48 h, mean ± SD (n = 3); for SI (A549): ratio of IC50 in BEAS-2B cells to IC50 in A549 cells
Procedure: as §1

[3] = test system: HeLa cells; assay: MTT cell viability assay, HeLa; type: cell-based, human; details: for IC50: 48 h, MTT, mean ± SD (n = 3); for SI (HeLa): ratio of IC50 in BEAS-2B cells to IC50 in HeLa cells
Procedure: as §1

[4] = test system: Escherichia coli; assay: Well plate biofilm formation assay (crystal violet); type: cell-based; details: over the concentration range given per compound (Table 4)
Procedure: (§2) The well plate assay was utilized to test the effectiveness of compounds in inhibiting biofilms made by microorganisms. An amount of 100 μL of Brucella broth (Remel, Lenexa, KS, USA) containing 1% and 20% glucose (Biolife, Milan, Italy), were dispensed into the test wells. In the next step, 100 μL of compounds ranging from 0.244 to 1000 μg/mL were poured into the wells. […] Then, 0.5 McFarland standard in physiological saline from each microorganism strain were prepared and 20 μL of the prepared suspension was added to the wells. A column of the microplate containing 100 μL Brucella broth served as a negative control and another column of the microplate containing 100 μL Brucella with 20 μL of each microorganism added served as a growth control. As positive controls, ciprofloxacin was applied against bacterial strains at a concentration range of 0.03125-64 μg/mL, and fluconazole was used against Candida albicans at a concentration range of 0.3125-640 μg/mL. Plates were left to incubate at 36.5 °C for a day. The plates were emptied and then washed three times with 300 μL of deionized water. The wells were left to dry for half an hour. The next step was staining with 0.1% (w/v) violet dye ([…]), cleaning three times with deionized water, and drying at room temperature. The crystal violet adhering to the wall of the wells was dissolved with 95% ethanol, and the optical density was measured at 570 nm. The test was run two times, and the mean value was calculated. Biofilm preventing (%) = {(ODb - ODc)/ODb} × 100.

[5] = test system: Pseudomonas aeruginosa; assay: as above; type: cell-based; details: over the concentration range given per compound (Table 4)
Procedure: as §2

[6] = test system: Staphylococcus aureus; assay: as above; type: cell-based; details: over the concentration range given per compound (Table 4); 1c and 1e at 1000 µg/mL
Procedure: as §2

[7] = test system: Candida albicans; assay: as above; type: cell-based; details: over the concentration range given per compound (Table 4)
Procedure: as §2

[8] = test system: Enterococcus faecalis; assay: as above; type: cell-based; details: over the concentration range given per compound (Table 4)
Procedure: as §2

| Structure (SMILES) | IC50 [1] | IC50 ([2]; Homo sapiens, A549, 48 h) | IC50 [2] | SI (A549) [2] | IC50 ([3]; Homo sapiens, HeLa) | IC50 [3] | SI (HeLa) [3] | Antibiofilm activity Escherichia coli [4] | Antibiofilm activity Pseudomonas aeruginosa [5] | Antibiofilm activity Staphylococcus aureus [6] | Antibiofilm activity Candida albicans [7] | Antibiofilm activity Enterococcus faecalis [8] |
| --- | --- | --- | --- | --- | --- | --- | --- | --- | --- | --- | --- | --- |
| Cn1c(=O)c2c(ncn2Cc2cccc(C(F)(F)F)c2)n(C)c1=O [Compound 1b, 1,3-Dimethyl-7-(3-(trifluoromethyl)benzyl)-3,7-dihydro-1H-purine-2,6-dione] | 120 ± 3 µM | 12.4 ± 0.7 µM | 13.6 ± 0.9 µM | 8.82 ± 0.20 | 10.8 ± 0.8 µM | 14.7 ± 0.7 µM | 8.16 ± 0.16 | did not show antibiofilm activity and – | did not show antibiofilm activity and – | did not show antibiofilm activity and – | 0.8–23.9% | 5.7–23.1% |
| Cn1c(=O)c2c(ncn2Cc2ccc(C(F)(F)F)cc2)n(C)c1=O [Compound 1c, 1,3-Dimethyl-7-(4-(trifluoromethyl)benzyl)-3,7-dihydro-1H-purine-2,6-dione] | 90 ± 3 µM | 13.6 ± 0.9 µM | 15.7 ± 0.6 µM | 5.73 ± 0.15 | 14.7 ± 0.7 µM | 11.5 ± 1.2 µM | 7.83 ± 0.22 | did not show antibiofilm activity and – | did not show antibiofilm activity and – | 20.1% | 0.9–12.3% | 0.7–16.0% |
| Cn1c(=O)c2c(ncn2Cc2cc(C(F)(F)F)cc(C(F)(F)F)c2)n(C)c1=O [Compound 1d, 1,3-Dimethyl-7-(3,5-bis(trifluoromethyl)benzyl)-3,7-dihydro-1H-purine-2,6-dione] | 150 ± 4 µM | 29.1 ± 0.5 µM | 31.4 ± 1 µM | 4.78 ± 0.14 | 32.4 ± 0.85 µM | 34.5 ± 1 µM | 4.35 ± 0.13 | did not show antibiofilm activity and – | did not show antibiofilm activity and – | did not show antibiofilm activity and – | 1.8–11.8% | 0.7–23.9% |
| Cn1c(=O)c2c(ncn2Cc2ccc(OC(F)(F)F)cc2)n(C)c1=O [Compound 1e, 1,3-Dimethyl-7-(4-(trifluoromethoxy)benzyl)-3,7-dihydro-1H-purine-2,6-dione] | 140 ± 3 µM | 31.4 ± 1 µM | 29.1 ± 0.5 µM | 4.81 ± 0.09 | 34.5 ± 1.25 µM | 32.4 ± 0.8 µM | 4.32 ± 0.11 | did not show antibiofilm activity and – | did not show antibiofilm activity and – | 13.6% | 0.4–23.4% | 5.1–13.9% |
